Source: patent US7943618B2, “Btk protein kinase inhibitors” (Roche Palo Alto LLC, priority 2007, dated 2011)

molecular target: T1, Btk enzyme (His-tagged, full-length) (Homo sapiens, UniProt Q06187); assay: Bruton's Tyrosine Kinase (Btk) Inhibition Assay (33P filtration capture); assay type: biochemical; conditions: Bruton's tyrosine kinase Assay (Example 34); Table I pyridazinones; 100 μM ATP
T1 construct: 5-10 nM Btk enzyme (His-tagged, full-length); His
Description: Bruton's Tyrosine Kinase (Btk) Inhibition Assay
The assay is a capture of radioactive ^33P phosphorylated product through filtration. The interactions of Btk, biotinylated SH2 peptide substrate (Src homology), and ATP lead to phosphorylation of the peptide substrate. Biotinylated product is bound streptavidin sepharose beads. All bound, radiolabeled products are detected by scintillation counter.
Plates assayed are 96-well polypropylene (Greiner) and 96-well 1.2 μm hydrophilic PVDF filter plates (Millipore).
IC50 determinations are calculated from 10 data points per compound utilizing data produced from a standard 96-well plate assay template. One control compound and seven unknown inhibitors were tested on each plate and each plate was run twice. […] The control compound was staurosporine. Background was counted in the absence of peptide substrate. Total activity was determined in the presence of peptide substrate. The following protocol was used to determine Btk inhibition.
1) Sample preparation: The test compounds were diluted at half-log increments in assay buffer (imidazole, glycerol-2-phosphate, EGTA, MnCl2, MgCl2, BSA).
2) Bead preparation • a.) rinse beads by centrifuging at 500 g • b.) reconstitute the beads with PBS and EDTA to produce a 20% bead slurry
3) Pre-incubate reaction mix without substrate (assay buffer, DTT, ATP, ^33P ATP) and mix with substrate (assay buffer, DTT, ATP, ^33P ATP, peptide substrate) 30° C. for 15 min.
4) To start assay, pre-incubate 10 μL Btk in enzyme buffer (imidazole, glycerol-2-phosphate, BSA) and 10 μL of test compounds for 10 min at RT.
5) Add 30 μL reaction mixture without or with substrate to Btk and compounds.
6) Incubate 50 μL total assay mix for 30 min at 30° C.
7) Transfer 40 μL of assay to 150 μL bead slurry in filter plate to stop reaction.
8) Wash filter plate after 30 min, with following steps • a. 3×250 μL NaCl • b. 3×250 μL NaCl containing 1% phosphoric acid • c. 1×250 μL H2O
9) Dry plate for 1 h at 65° C. or overnight at RT
10) Add 50 μL microscint-20 and count ^33P cpm on scintillation counter.
Calculate percent activity from raw data in cpm percent activity=(sample−bkg)/(total activity−bkg)×100
Calculate IC50 from percent activity, using one-site dose response sigmoidal model y=A+((B−A)/(1+((x/C)^D))))

T1 sequence (Q06187 whole entry): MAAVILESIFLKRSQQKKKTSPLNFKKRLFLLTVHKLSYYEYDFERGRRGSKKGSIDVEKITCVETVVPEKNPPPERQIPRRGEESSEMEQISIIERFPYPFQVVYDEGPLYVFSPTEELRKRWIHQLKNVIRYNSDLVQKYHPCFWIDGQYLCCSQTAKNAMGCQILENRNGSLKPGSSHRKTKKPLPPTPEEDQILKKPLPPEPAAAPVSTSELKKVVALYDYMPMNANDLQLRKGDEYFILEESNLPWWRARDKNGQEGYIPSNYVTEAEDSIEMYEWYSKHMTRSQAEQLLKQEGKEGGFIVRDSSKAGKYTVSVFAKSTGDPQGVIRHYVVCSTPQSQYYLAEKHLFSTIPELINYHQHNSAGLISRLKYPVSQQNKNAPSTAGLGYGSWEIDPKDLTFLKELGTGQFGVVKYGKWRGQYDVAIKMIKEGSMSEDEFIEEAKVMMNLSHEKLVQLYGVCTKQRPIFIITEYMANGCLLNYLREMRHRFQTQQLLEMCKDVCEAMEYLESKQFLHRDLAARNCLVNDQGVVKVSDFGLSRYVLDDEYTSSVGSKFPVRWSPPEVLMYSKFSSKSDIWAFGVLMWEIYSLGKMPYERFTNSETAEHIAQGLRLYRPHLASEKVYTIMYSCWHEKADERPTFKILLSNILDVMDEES

Point of comparison: `COC(=O)c1ccc(Nc2cc(-c3cccc(NC(=O)c4ccc(C(C)(C)C)cc4)c3C)nn(C)c2=O)nc1` [Compound I-9], IC50 160 nM. Against it:
- Cn1nc(-c2cccc(NC(=O)c3ccc(C4CC4)cc3)c2CO)cc(Nc2ccc(C(=O)N3CCOCC3)cn2)c1=O [Compound I-46] — lower, < 10 nM
- Cc1c(NC(=O)c2ccc(C(C)(C)C)cc2)cccc1-c1cc(Nc2ccnc(N3CCC(O)C3)n2)c(=O)n(C)n1 (stereo not drawn) [Compound I-22, 4-tert-Butyl-N-(3-{5-[2-(3-hydroxy-pyrrolidin-1-yl) -pyrimidin-4-ylamino]-1-methyl-6-oxo-1-6-dihydro-pyridazin-3-yl}-2-methyl-phenyl)-benzamide] — 3.1-fold lower, 52 nM
- Cn1nc(-c2cccc(CC(=O)N3Cc4ccccc4C3)c2)cc(Nc2ccc(C(=O)N3CCC(O)CC3)cn2)c1=O [Compound I-31] — within 1.5-fold, 155 nM
- Cc1c(NC(=O)c2ccc(C(C)(C)C)cc2)cccc1-c1cc(Nc2ccnc(OCC3CCNC3)n2)c(=O)n(C)n1 (stereo not drawn) [Compound I-19, 4-tert-Butyl-N-(2-methyl-3-{1-methyl-6-oxo-5-[2-(pyrrolidin-3-ylmethoxy)-pyrimidin-4-ylamino]-1,6-dihydro-pyridazin-3-yl}-phenyl)-benzamide] — within 1.5-fold, 143 nM
- Cc1c(NC(=O)c2ccc(C(C)(C)C)cc2)cccc1-c1cc(Nc2ccnc(S(C)(=O)=O)n2)c(=O)n(C)n1 [Compound I-13] — 6.6-fold higher, 1060 nM

same assay, conditions: Bruton's tyrosine kinase Assay (Example 34); Table II pyridinones; 100 μM ATP

Point of comparison: `Cn1cc(-c2cccc(NC(=O)c3ccc(C4CC4)cc3)c2CO)cc(Nc2ccc(N3CCOCC3)nn2)c1=O` [II-103], IC50 14 nM. Against it:
- Cn1cc(-c2cccc(NC(=O)c3ccc(C(C)(C)C#N)cc3)c2CO)cc(Nc2ccc(C(=O)N3CCOCC3)cn2)c1=O [II-96] — lower, < 10 nM
- CCOc1cccc(Nc2cc(-c3cccc(NC(=O)c4ccc(C5CC5)cc4)c3CO)cn(C)c2=O)n1 [II-90] — 5.8-fold higher, 81 nM
- CNC(=O)Nc1cc(-c2cccc(CC(=O)N3Cc4ccc(F)cc4C3)c2)cn(C)c1=O [II-46] — 250-fold higher, 3440 nM
- Cn1cc(-c2cccc(NC(=O)c3ccc(Br)cc3)c2CO)cc(Nc2ccc(C(=O)N3CCOCC3)cn2)c1=O [II-63] — 2.2-fold higher, 31 nM
- CCNC(=O)Nc1cc(-c2cccc(NC(=O)c3ccc(C4CC4)cc3)c2CO)cn(C)c1=O [II-77] — 2.9-fold higher, 40 nM
- CCC(O)CNC(=O)Nc1cc(-c2cccc(NC(=O)c3ccc(C4CC4)cc3)c2CO)cn(C)c1=O (stereo not drawn) [II-85] — 3.3-fold higher, 46 nM
- Cn1cc(-c2cccc(NC(=O)c3ccc(C4CC4)cc3)c2CO)cc(Nc2ccc(C(=O)N3CCCC3)cn2)c1=O [II-99] — within 1.5-fold, 11 nM
- CC(O)CNC(=O)Nc1cc(-c2cccc(NC(=O)c3ccc(C4CC4)cc3)c2CO)cn(C)c1=O (stereo not drawn) [II-86] — 4.9-fold higher, 68 nM
- Cn1cc(-c2cccc(NC(=O)c3ccc(C4CC4)cc3)c2CO)cc(NC(=O)NCCCN2CCOCC2)c1=O [II-83] — 3.9-fold higher, 54 nM
- Cn1cc(-c2cccc(NC(=O)c3ccc([Si](C)(C)C)cc3)c2CO)cc(Nc2ccc(C(=O)N3CCOCC3)cn2)c1=O [II-76] — 2.9-fold higher, 40 nM
- CN(C)c1ccc(C(=O)Nc2cccc(-c3cc(Nc4ccccn4)c(=O)n(C)c3)c2CO)cc1 [II-59] — within 1.5-fold, 20 nM
- Cn1cc(-c2cccc(NC(=O)c3ccc(C4(F)CC4)cc3)c2CO)cc(Nc2ccccn2)c1=O [II-64] — 3.6-fold higher, 50 nM
- CNC(=O)Nc1cc(-c2cccc(NC(=O)c3ccc(C(C)(C)C)cc3)c2)cn(C)c1=O [II-27] — 9.4-fold higher, 131 nM
- CNC(=O)Nc1cc(-c2cccc(NC(=O)c3ccc(C(C)(C)C#N)cc3)c2C)cn(C)c1=O [II-42, 4-(Cyano-dimethyl-methyl)-N-{2-methyl-3-[1-methyl-5-(3-methyl-ureido)-6-oxo-1,6-dihydro-pyridin-3-yl]-phenyl}-benzamide] — 49-fold higher, 681 nM
- CN(C)CCCNC(=O)Nc1cc(-c2cccc(NC(=O)c3ccc(C4CC4)cc3)c2CO)cn(C)c1=O [II-80] — 3.1-fold higher, 43 nM
- Cn1cc(-c2cccc(NC(=O)c3ccc4c(c3)OCC4(C)C)c2CO)cc(Nc2ccc(C(=O)N3CCOCC3)cn2)c1=O [II-71, 3,3-Dimethyl-2,3-dihydro-benzofuran-6-carboxylic acid (2-hydroxymethyl-3-{1-methyl-5-[5-(morpholine-4-carbonyl)-pyridin-2-ylamino]-6-oxo-1,6-dihydro-pyridin-3-yl}-phenyl)-amide] — lower, < 10 nM
- Cn1cc(-c2cccc(NC(=O)c3ccc(C4CC4)cc3)c2CO)cc(Nc2ccc(C(=O)N3CC(F)(F)C3)cn2)c1=O [II-100] — 2.2-fold higher, 31 nM
- Cn1cc(-c2cccc(NC(=O)c3ccc(C(C)(C)C(F)(F)F)cc3)c2CO)cc(Nc2ccc(C(=O)N3CCNCC3)cn2)c1=O [II-81, N-(2-Hydroxymethyl-3-{1-methyl-6-oxo-5-[5-(piperazine-1-carbonyl)-pyridin-2-ylamino]-1,6-dihydro-pyridin-3-yl}-phenyl)4-(2,2,2-trifluoro-1,1-dimethyl-ethyl)-benzamide] — lower, < 10 nM
- Cn1cc(-c2cccc(NC(=O)c3ccc(C4CC4)cc3)c2CO)cc(NC(=O)NCCc2cccnc2)c1=O [II-79] — 11-fold higher, 160 nM
- CN(C)c1ccc(C(=O)Nc2cccc(-c3cc(Nc4ccc(C(=O)N5CCOCC5)cn4)c(=O)n(C)c3)c2CO)cc1 [II-49, 4-Dimethylamino-N-(2-hydroxymethyl-3-{1-methyl-5-[5-(morpholine-4-carbonyl)-pyridin-2-ylamino]-6-oxo-1,6-dihydro-pyridin-3-yl}-phenyl)-benzamide] — lower, < 10 nM
- Cn1cc(-c2cccc(NC(=O)c3ccc(C4(Cl)CC4)cc3)c2CO)cc(Nc2ccc(C(=O)N3CCOCC3)cn2)c1=O [II-75] — lower, < 10 nM
- Cn1cc(-c2cccc(NC(=O)c3ccc(C(F)(F)F)cc3)c2CO)cc(Nc2ccc(C(=O)N3CCOCC3)cn2)c1=O [II-55] — 6.1-fold higher, 85 nM
- COC(C)(C)c1ccc(C(=O)Nc2cccc(-c3cc(Nc4ccc(C(=O)N5CCOCC5)cn4)c(=O)n(C)c3)c2CO)cc1 [II-66] — 1.7-fold higher, 24 nM
- Cn1cc(-c2cccc(NC(=O)c3ccc(C4CC4)cc3)c2CO)cc(Nc2ccc(=O)n(Cc3ccccc3)n2)c1=O [II-93] — 21-fold higher, 298 nM
- CCNC(=O)Nc1cc(-c2cccc(NC(=O)c3ccc(C4(F)CC4)cc3)c2CO)cn(C)c1=O [II-65] — within 1.5-fold, 15 nM
- Cn1cc(-c2cccc(NC(=O)c3ccc(C(F)(C(F)(F)F)C(F)(F)F)cc3)c2CO)cc(Nc2ccc(C(=O)N3CCOCC3)cn2)c1=O [II-68] — 5.1-fold higher, 71 nM
- CNC(=O)Nc1cc(-c2cccc(NC(=O)c3ccc(C(C)(C)O)cc3)c2C)cn(C)c1=O [II-28, 4-(1-Hydroxy-1-methyl-ethyl)-N-{2-methyl-3-[1-methyl-5-(3-methyl-ureido)-6-oxo-1,6-dihydro-pyridin-3-yl]-phenyl}-benzamide] — 16-fold higher, 230 nM
- Cn1cc(-c2cccc(NC(=O)c3ccc(C4CC4)cc3)c2CO)cc(NC(=O)NCC2CCCO2)c1=O (stereo not drawn) [II-84] — 4.3-fold higher, 60 nM
- Cn1cc(-c2cccc(NC(=O)c3ccc(N4CCCCC4)cc3)c2CO)cc(Nc2ccc(C(=O)N3CCOCC3)cn2)c1=O [II-97] — 8.1-fold higher, 114 nM
- Cn1cc(-c2cccc(NC(=O)c3ccc(C4CC4)cc3)c2CO)cc(NC(=O)NCCc2ccccn2)c1=O [II-78] — 15-fold higher, 214 nM
- Cc1ccc(Nc2cc(-c3cccc(NC(=O)c4ccc(C5CC5)cc4)c3CO)cn(C)c2=O)nn1 [II-94] — 1.7-fold higher, 24 nM
- Cn1cc(-c2cccc(NC(=O)c3ccc(C4CC4)cc3)c2CO)cc(Nc2cccnn2)c1=O [II-95] — within 1.5-fold, 20 nM
- Cn1cc(-c2cccc(NC(=O)c3ccc(C4CC4)cc3)c2CO)cc(Nc2cnccn2)c1=O [II-98] — 6.4-fold higher, 90 nM
- Cn1cc(-c2cccc(NC(=O)c3ccc(C(C)(C)F)cc3)c2CO)cc(Nc2ccc(C(=O)N3CCOCC3)cn2)c1=O [II-52] — lower, < 10 nM
- Cn1cc(-c2cccc(NC(=O)c3ccc(S(F)(F)(F)(F)F)cc3)c2CO)cc(Nc2ccc(C(=O)N3CCOCC3)cn2)c1=O [II-89] — lower, < 10 nM
- Cn1cc(-c2cccc(NC(=O)c3ccc(C(Cl)(Cl)Cl)cc3)c2CO)cc(Nc2ccc(C(=O)N3CCOCC3)cn2)c1=O [II-74] — 3.6-fold higher, 50 nM
- CNC(=O)Nc1cc(-c2cccc(NC(=O)c3ccc4c(ccn4C)c3)c2C)cn(C)c1=O [II-23, 1-Methyl-1H-indole-5-carboxylic acid{2-methyl-3-[1-methyl-5-(3-methyl-ureido)-6-oxo-1,6-dihydro-pyridin-3-yl]-phenyl}-amide] — 710-fold higher, 9930 nM
- CNC(=O)Nc1cc(-c2cccc(NC(=O)c3ccc(N4CCCCC4)nc3)c2C)cn(C)c1=O [II-19] — 22-fold higher, 310 nM
- C[C@H](O)CNC(=O)Nc1cc(-c2cccc(NC(=O)c3ccc(C4CC4)cc3)c2CO)cn(C)c1=O [II-54] — 4.9-fold higher, 68 nM
- Cn1cc(-c2cccc(NC(=O)c3ccc(C4CC4)cc3)c2CO)cc(Nc2ccc(C(=O)N3CCC3)cn2)c1=O [II-101] — lower, < 10 nM
- CN(C)c1ccc(C(=O)Nc2cccc(-c3cc(Nc4ccc(C(=O)N5CCC(N(C)C)CC5)cn4)c(=O)n(C)c3)c2CO)cc1 [II-60] — lower, < 10 nM
